Experimental data taken from US20170224613A1, “HYDROGEL COMPOSITIONS, METHODS FOR PREPARING THE SAME AND USES THEREOF” (CHONGQING MJ MEDICAL DEVICES CO., LTD., priority 2014, published 2017).

Tested on: healthy volunteers
Assay: Testing in healthy volunteers: warming sensation, cooling sensation, skin irritation on forearm
Type: in vivo, human
Conditions: at 11 wt % based on the total weight of the hydrogel composition
Experimental: In a pilot study to evaluate the hydrogel composition formulations, the different hydrogel prototypes (with a gauze on which the respective hydrogel composition was disposed) of Examples 2 (called gel B in Table 3) and 6 (called gel C in Table 3) and Comparative Example 1 (called gel A in Table 3) were tested on 8 healthy volunteers (M:F=5:3, ages 27-64), respectively. […] Three clinical parameters were considered including the cooling sensation, the warming sensation and irritation/erythema on the applied skin area. In this pilot study, each participant has applied the topical hydrogels (120 mm×100 mm×5 mm; 70 g) on to their forearm (one gel per forearm at a time) and scored their subjective warming and cooling sensations at 5, 10, 20, and 30 min after hydrogel application according to Table 2. The skin irritation reaction was also examined and scored by a researcher according to Table 2.

COC(=O)c1ccccc1O [Methyl salicylate, methyl salicylate]
irritation by methyl salicylate in hydrogel: showed irritation
